Reference: ChEMBL document CHEMBL1135389, “7-Substituted 5-amino-2-(2-furyl)pyrazolo[4,3-e]-1,2,4-triazolo[1,5-c]pyrimidines as A2A adenosine receptor antagonists: a study on the importance of modifications at the side chain on the activity and solubility” (J Med Chem, 2002)
pKi: −log10 of the molar value.

Tests used:
Adenosine receptor A1 [1] = target: T1, Adenosine receptor A1 (Homo sapiens, UniProt P30542); assay: biochemical
T1 sequence (P30542 whole entry): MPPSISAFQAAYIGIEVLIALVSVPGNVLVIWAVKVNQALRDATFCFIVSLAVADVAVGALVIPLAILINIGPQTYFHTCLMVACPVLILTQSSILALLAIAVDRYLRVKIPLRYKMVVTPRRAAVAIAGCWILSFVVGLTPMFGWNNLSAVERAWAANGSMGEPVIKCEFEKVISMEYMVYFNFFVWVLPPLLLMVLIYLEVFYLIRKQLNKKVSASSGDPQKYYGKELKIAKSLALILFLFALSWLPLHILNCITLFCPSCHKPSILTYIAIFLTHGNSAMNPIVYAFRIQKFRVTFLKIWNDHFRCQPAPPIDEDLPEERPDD
Description: Displacement of specific [3H]DPCPX binding at human Adenosine A1 receptor expressed in CHO cells.

Adenosine receptor A2a [2] = target: T2, Adenosine receptor A2a (Homo sapiens, UniProt P29274); assay: biochemical
T2 sequence (P29274 whole entry): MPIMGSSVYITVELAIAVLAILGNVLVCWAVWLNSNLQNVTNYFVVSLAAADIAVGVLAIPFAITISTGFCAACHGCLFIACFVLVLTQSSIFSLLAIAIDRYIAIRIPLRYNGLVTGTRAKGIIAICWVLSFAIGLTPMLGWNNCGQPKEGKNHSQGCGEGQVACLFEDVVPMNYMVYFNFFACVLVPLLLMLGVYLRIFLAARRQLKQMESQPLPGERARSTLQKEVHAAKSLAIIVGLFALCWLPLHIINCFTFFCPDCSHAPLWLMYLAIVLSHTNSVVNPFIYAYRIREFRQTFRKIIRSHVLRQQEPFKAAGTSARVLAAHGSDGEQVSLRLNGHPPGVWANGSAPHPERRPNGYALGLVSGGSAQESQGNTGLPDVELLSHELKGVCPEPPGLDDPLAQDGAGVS

Adenosine receptor A2b [3] = target: T3, Adenosine receptor A2b (Homo sapiens, UniProt P29275); assay: biochemical
T3 sequence (P29275 whole entry): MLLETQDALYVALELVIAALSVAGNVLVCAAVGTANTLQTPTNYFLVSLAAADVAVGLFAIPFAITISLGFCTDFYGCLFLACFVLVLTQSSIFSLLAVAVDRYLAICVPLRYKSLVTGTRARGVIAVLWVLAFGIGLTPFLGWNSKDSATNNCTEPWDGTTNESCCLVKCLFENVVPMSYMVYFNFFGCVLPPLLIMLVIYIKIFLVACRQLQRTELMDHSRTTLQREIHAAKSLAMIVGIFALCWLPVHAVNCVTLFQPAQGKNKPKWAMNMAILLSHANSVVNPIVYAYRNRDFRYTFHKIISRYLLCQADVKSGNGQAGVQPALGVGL
Description: (§1) Displacement of specific [3H]DPCPX binding at human adenosine A2B receptor expressed in HEK293 cells.

Adenosine receptor A3 = target: T4, Adenosine receptor A3 (Homo sapiens, UniProt P0DMS8); assay: Displacement of specific [3H]MRE3008-F20 binding at human adenosine A3 receptor expressed in CHO cells.; assay type: cell-based
T4 sequence (P0DMS8 whole entry): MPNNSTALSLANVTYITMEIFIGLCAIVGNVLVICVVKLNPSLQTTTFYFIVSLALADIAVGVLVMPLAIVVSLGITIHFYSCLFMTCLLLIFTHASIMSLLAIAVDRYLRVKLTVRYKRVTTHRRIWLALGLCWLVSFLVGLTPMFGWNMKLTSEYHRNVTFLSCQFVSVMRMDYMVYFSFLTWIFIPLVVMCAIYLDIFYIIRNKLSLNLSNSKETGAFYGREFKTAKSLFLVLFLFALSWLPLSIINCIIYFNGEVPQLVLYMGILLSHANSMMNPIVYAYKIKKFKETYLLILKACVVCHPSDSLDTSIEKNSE

Adenosine receptor A1 [4] = target: T1, Adenosine receptor A1; assay: Displacement of [3H]DPCPX from human Adenosine A1 receptor expressed in CHO cells; ranges from 3420-3788; assay type: cell-based
Adenosine receptor A2a [5] = target: T2, Adenosine receptor A2a; assay: Displacement of [3H]-SCH- 58261 binding at human Adenosine A2A receptor expressed in HEK293 cells; ranges from 49-72; assay type: cell-based
Adenosine receptor A1 [6] = target: T1, Adenosine receptor A1; assay: Displacement of [3H]-DPCPX from human Adenosine A1 receptor expressed in CHO cells; ranges from 2153-2891; assay type: cell-based
Adenosine receptor A2a [7] = target: T2, Adenosine receptor A2a; assay: Displacement of [3H]-SCH- 58261 binding at human Adenosine A2A receptor expressed in HEK293 cells; ranges from 0.69-0.92; assay type: cell-based
Adenosine receptor A2a [8] = target: T2, Adenosine receptor A2a; assay: Displacement of [3H]-SCH- 58261 binding at human Adenosine A2A receptor expressed in HEK293 cells; ranges from 48.9-52.4; assay type: cell-based
Adenosine receptor A1 [9] = target: T1, Adenosine receptor A1; assay: Displacement of [3H]DPCPX binding at human Adenosine A1 receptor expressed in CHO cells; ranges from 8783-9911; assay type: cell-based
Adenosine receptor A1 [10] = target: T1, Adenosine receptor A1; assay: Displacement of [3H]DPCPX binding at human Adenosine A1 receptor expressed in CHO cells; ranges from 5697-7171; assay type: cell-based
Adenosine receptor A2a [11] = target: T2, Adenosine receptor A2a; assay: Displacement of [3H]-SCH- 58261 binding at human Adenosine A2A receptor expressed in HEK293 cells; ranges from 66-85; assay type: cell-based
Adenosine receptor A2a [12] = target: T2, Adenosine receptor A2a; assay: Displacement of [3H]-SCH- 58261 binding at human Adenosine A2A receptor expressed in HEK293 cells; ranges from 129-152; assay type: cell-based
Adenosine receptor A1 [13] = target: T1, Adenosine receptor A1; assay: Displacement of [3H]-DPCPX from human Adenosine A1 receptor expressed in CHO cells; ranges from 107-181; assay type: cell-based
Adenosine receptor A1 [14] = target: T1, Adenosine receptor A1; assay: Displacement of [3H]DPCPX from human Adenosine A1 receptor expressed in CHO cells; ranges from 9038-9773; assay type: cell-based
Adenosine receptor A2b [15] = target: T3, Adenosine receptor A2b; conditions: hek293
Description: as §1

Adenosine receptor A2a [16] = target: T2, Adenosine receptor A2a; assay: Displacement of [3H]-SCH- 58261 binding at human Adenosine A2A receptor expressed in HEK293 cells; ranges from 98-144; assay type: cell-based
Adenosine receptor A1 [17] = target: T1, Adenosine receptor A1; assay: Displacement of [3H]DPCPX from human Adenosine A1 receptor expressed in CHO cells; ranges from 1460-2201; assay type: cell-based
Adenosine receptor A2a [18] = target: T2, Adenosine receptor A2a; assay: Displacement of [3H]-SCH- 58261 from human Adenosine A2A receptor expressed in HEK293 cells; ranges from 4.95-6.08; assay type: cell-based
Adenosine receptor A1 [19] = target: T1, Adenosine receptor A1; assay: Displacement of [3H]-DPCPX binding at human Adenosine A1 receptor expressed in CHO cells; ranges from 9257-9817; assay type: cell-based
Adenosine receptor A2a [20] = target: T2, Adenosine receptor A2a; assay: biochemical; remark: listed apart in the source
Adenosine receptor A1 [21] = target: T1, Adenosine receptor A1; assay: Displacement of [3H]DPCPX binding at human Adenosine A1 receptor expressed in CHO cells; ranges from 363-514; assay type: cell-based
Adenosine receptor A2a [22] = target: T2, Adenosine receptor A2a; assay: biochemical; remark: listed apart in the source
Adenosine receptor A1 [23] = target: T1, Adenosine receptor A1; assay: Displacement of [3H]DPCPX from human Adenosine A1 receptor expressed in CHO cells; ranges from 324-420; assay type: cell-based

Compound	pKi (Adenosine receptor A1 [1])	pKi (Adenosine receptor A2a [2])	pKi (Adenosine receptor A2b [3])	pKi (Adenosine receptor A3)	other results
N/C(=N\O)c1ccc(CCn2ncc3c2nc(N)n2nc(-c4ccco4)nc32)cc1	6.75	9.74	< 5.00	< 5.00	
N#Cc1ccc(CCCn2ncc3c2nc(N)n2nc(-c4ccco4)nc32)cc1	5.19	7.07	< 5.00	< 5.00	
CCOC(=O)COc1ccc(CCn2ncc3c2nc(N)n2nc(-c4ccco4)nc32)cc1	5.38	9.37	< 5.00	< 5.00	
Nc1nc2c(cnn2CCc2ccc(N(CCO)CCO)cc2)c2nc(-c3ccco3)nn12	6.91	9.92	< 5.00	< 5.00	
Nc1nc2c(cnn2CCCc2ccc([N+](=O)[O-])cc2)c2nc(-c3ccco3)nn12	5.99	9.00	< 5.00	< 5.00	
Nc1ccc(CCn2ncc3c2nc(N)n2nc(-c4ccco4)nc32)cc1	6.24	9.89	< 5.00	< 5.00	
NCc1ccc(CCCn2ncc3c2nc(N)n2nc(-c4ccco4)nc32)cc1	7.22	8.22	< 5.00	< 5.00	
Nc1nc2c(cnn2CCCc2ccc3c(c2)O[C@H](C(=O)O)O3)c2nc(-c3ccco3)nn12			< 5.00	< 5.00	pKi (Adenosine receptor A1 [4]): 5.44; pKi (Adenosine receptor A2a [5]): 7.23
CC(=O)Nc1ccc(CCn2ncc3c2nc(N)n2nc(-c4ccco4)nc32)cc1	6.38	8.32	< 5.00	< 5.00	
Nc1nc2c(cnn2CCc2ccc(S(=O)(=O)N(CCO)CCO)cc2)c2nc(-c3ccco3)nn12			< 5.00	< 5.00	pKi (Adenosine receptor A1 [6]): 5.60; pKi (Adenosine receptor A2a [7]): 9.10
N/C(=N/O)c1ccc(CCCn2ncc3c2nc(N)n2nc(-c4ccco4)nc32)cc1	7.22	8.22	< 5.00	< 5.00	
Nc1nc2c(cnn2CCc2ccc(S(=O)(=O)NCC(=O)O)cc2)c2nc(-c3ccco3)nn12			< 5.00	< 5.00	pKi (Adenosine receptor A2a [8]): 7.30; pKi (Adenosine receptor A1 [9]): 5.03
Nc1nc2c(cnn2CCc2ccc(S(=O)(=O)O)cc2)c2nc(-c3ccco3)nn12	6.72	7.00	< 5.00	< 5.00	
Nc1nc2c(cnn2CCCc2cc3c(cc2S(=O)(=O)O)OCO3)c2nc(-c3ccco3)nn12			< 5.00	< 5.00	pKi (Adenosine receptor A1 [10]): 5.19; pKi (Adenosine receptor A2a [11]): 7.12
Nc1nc2c(cnn2CCc2ccc(S(N)(=O)=O)cc2)c2nc(-c3ccco3)nn12	5.58	8.88	< 5.00	< 5.00	
Nc1nc2c(cnn2CCCc2ccc(S(=O)(=O)O)cc2)c2nc(-c3ccco3)nn12			< 5.00	< 5.00	pKi (Adenosine receptor A2a [12]): 6.85; pKi (Adenosine receptor A1 [13]): 6.86
Nc1nc2c(cnn2CCc2ccc(S(=O)(=O)N(CCCl)CCCl)cc2)c2nc(-c3ccco3)nn12	5.28	9.23	< 5.00	< 5.00	
Nc1nc2c(cnn2CCCc2ccc(N(CCO)CCO)cc2)c2nc(-c3ccco3)nn12	6.25	8.96	< 5.00	< 5.00	
Nc1nc2c(cnn2CCCc2ccc3c(c2)OC(C(=O)O)(C(=O)O)O3)c2nc(-c3ccco3)nn12 [listing 1 of 2 here]					pKi (Adenosine receptor A1 [14]): 5.03; pKi (Adenosine receptor A3; cho): < 5.00; pKi (Adenosine receptor A2b [15]): < 5.00; pKi (Adenosine receptor A2a [16]): 6.92
CCOC(=O)[C@@H]1Oc2ccc(CCCn3ncc4c3nc(N)n3nc(-c5ccco5)nc43)cc2O1			< 5.00	< 5.00	pKi (Adenosine receptor A1 [17]): 5.75; pKi (Adenosine receptor A2a [18]): 8.26
Nc1nc2c(cnn2CCCc2ccc(C(=O)O)cc2)c2nc(-c3ccco3)nn12	5.30	8.36	< 5.00	< 5.00	
N=C(N)c1ccc(CCCn2ncc3c2nc(N)n2nc(-c4ccco4)nc32)cc1	7.12	7.26	< 5.00	< 5.00	
Nc1nc2c(cnn2CCCc2ccc3c(c2)OC(C(=O)O)(C(=O)O)O3)c2nc(-c3ccco3)nn12 [listing 2 of 2 here]			< 5.00	< 5.00	pKi (Adenosine receptor A1 [19]): 5.02; pKi (Adenosine receptor A2a [16]): 6.92
Nc1ccc(CCCn2ncc3c2nc(N)n2nc(-c4ccco4)nc32)cc1	5.67	9.66	< 5.00	< 5.00	
Nc1nc2c(cnn2CCCc2ccc3c(c2)OC(CO)(CO)O3)c2nc(-c3ccco3)nn12			< 5.00	< 5.00	pKi (Adenosine receptor A2a [20]): 9.72; pKi (Adenosine receptor A1 [21]): 6.36
CN1CCN(S(=O)(=O)c2ccc(CCn3ncc4c3nc(N)n3nc(-c5ccco5)nc43)cc2)CC1			< 5.00	< 5.00	pKi (Adenosine receptor A2a [22]): 8.42; pKi (Adenosine receptor A1 [23]): 6.43
CCOC(=O)c1ccc(CCCn2ncc3c2nc(N)n2nc(-c4ccco4)nc32)cc1	5.35	8.40	< 5.00	< 5.00	
Nc1nc2c(cnn2CCCc2ccccc2)c2nc(-c3ccco3)nn12 [SCH-63390]	6.46	8.92	< 5.00		
